# Reference: paper PMC6010916, “Safety and pharmacokinetics of veliparib extended‐release in patients with advanced solid tumors: a phase I study” (Cancer Medicine, 2018)
# Columns and labels:
# [1] = cited from earlier work
# [2] = cited from earlier work; remark: listed apart in the source
# [3] = tested on: advanced solid tumors (ovarian, breast carcinoma); test: Time to disease progression (TTP); assay type: in vivo, human
# Method: (§1) Adverse event (AE) severity was assessed according to the National Cancer Institute Common Terminology Criteria for Adverse Events (NCI CTCAE) version 4.0. Tumor evaluations were performed at screening, every 8 weeks after the first administration of study drug, and at the final visit using radiographic measurements from computed tomography or magnetic resonance imaging. Objective tumor responses were evaluated using RECIST version 1.1 criteria. Patients who received one or more doses of veliparib were included in the PK and safety analyses, as well as for evaluation of time to disease progression (TTP). Patients with one or more measurable lesion at baseline were included in the analysis of objective responses.
# [4] = tested on: non-small-cell lung cancer; triple-negative breast cancer; set-up: method as in earlier work; conditions: combined with carboplatin and paclitaxel; preliminary results; cited from earlier work
# [5] = tested on: ovarian and breast carcinoma; test: Objective tumor response (RECIST version 1.1); assay type: in vivo, human
# Method: as §1
# [6] = Safety: treatment-emergent adverse events (NCI CTCAE version 4.0); assay type: in vivo, human; conditions: All cycles
# Method: as §1
# [7] = 16 evaluable patients with breast carcinoma (all BRCA mutation carriers)
# [8] = 42 evaluable breast and ovarian carcinoma patients with deleterious BRCA mutations
# [9] = 44 evaluable patients with ovarian carcinoma
# [10] = Deleterious BRCA mutation, Breast (n = 16)
# [11] = Deleterious BRCA mutation, Ovarian (n = 26)
# [12] = Deleterious BRCA mutation, Overall (N = 42)
smiles,measurement,setting,value
C[C@]1(c2nc3c(C(N)=O)cccc3[nH]2)CCCN1 [veliparib],RP2D,"[1]; single agent, phase I study",400 mg twice-daily (BID)
same,patients experiencing grade 3 or 4 neutropenia or thrombocytopenia,"[1]; single-agent therapy, phase I and II trials",2%
same,"patients with dose modifications, predominantly for nausea and vomiting",[1]; single-agent therapy,78%
same,absorption,[2],rapid absorption
same,elimination,[2],predominant elimination through urinary excretion of the unchanged drug
same,oral bioavailability,[2],high oral bioavailability
same,6-month TTP rate,[3]; breast carcinoma (n = 17),53.5%
same,6-month TTP rate,"[3]; deleterious BRCA mutations, breast carcinoma",53.5%
same,6-month TTP rate,"[3]; deleterious BRCA mutations, ovarian carcinoma",35.7%
same,6-month TTP rate,[3]; ovarian carcinoma (n = 53),31.8%
same,6-month TTP rate (had not progressed at 6 months),[3]; overall (N = 71),38.1%
same,median TTP,[3]; overall population (N = 71),149 days
same,6-month TTP rate,[3]; patients with deleterious BRCA mutations,43.0%
same,6-month TTP rate,[3]; patients without BRCA mutations,22.9%
same,6-month TTP rate,[3]; unknown BRCA mutation status,27.8%
same,primary endpoints (overall survival or complete pathologic response),[4],did not meet their primary endpoints
same,confirmed partial responses,[5]; [7],25.0%
same,partial response (confirmed and unconfirmed),[5]; [7],62.5%
same,confirmed partial responses,[5]; 16 patients with breast carcinoma and deleterious BRCA mutations,25.0%
same,confirmed partial responses,[5]; 26 patients with ovarian carcinoma and deleterious BRCA mutations,11.5%
same,confirmed partial responses,[5]; [8],16.7%
same,partial response (confirmed and unconfirmed),[5]; [8],40.5%
same,confirmed partial responses,[5]; [9],11.4%
same,partial response (confirmed and unconfirmed),[5]; [9],27.3%
same,confirmed overall ORR,[5]; 60 evaluable patients,15%
same,overall (confirmed and unconfirmed) ORR,[5]; 60 evaluable patients,36.7%
same,"CR, confirmed",[5]; Breast (n = 16),0 n (%)
same,"ORR (CR + PR), confirmed",[5]; Breast (n = 16),4 (25.0)— n/N (%) (95% CI)
same,"PR, confirmed",[5]; Breast (n = 16),4 (25.0) n (%)
same,"CR, confirmed",[5]; [10],0 n (%)
same,"ORR (CR + PR), confirmed",[5]; [10],4 (25.0) n/N (%)
same,"PR, confirmed",[5]; [10],4 (25.0) n (%)
same,"CR, confirmed",[5]; [11],0 n (%)
same,"ORR (CR + PR), confirmed",[5]; [11],3 (11.5) n/N (%)
same,"PR, confirmed",[5]; [11],3 (11.5) n (%)
same,"CR, confirmed",[5]; [12],0 n (%)
same,"PR, confirmed",[5]; [12],7 (16.7) n (%)
same,"CR, confirmed",[5]; Ovarian (n = 44),0 n (%)
same,"PR, confirmed",[5]; Ovarian (n = 44),5 (11.4) n (%)
same,"ORR (CR + PR), confirmed","[5]; Ovarian (n = 44), measurable lesion at baseline",5 (11.4)— n/N (%) (95% CI)
same,"CR, confirmed",[5]; Overall (N = 60),0 n (%)
same,"PR, confirmed",[5]; Overall (N = 60),9 (15.0) n (%)
same,"partial response (two confirmed, two unconfirmed)","[5]; nine patients with unknown BRCA status and measurable disease, all ovarian carcinoma",44.4%
same,objective responses,[5]; ovarian carcinoma patients with no BRCA mutation,No confirmed and one unconfirmed objective responses
same,Any SAE,[6]; All patients (N = 71),20 (28.2) n (%)
same,SAE leading to discontinuation,[6]; All patients (N = 71),8 (11.3) n (%)
same,SAE leading to dose interruption,[6]; All patients (N = 71),14 (19.7) n (%)
same,SAE leading to dose reduction,[6]; All patients (N = 71),1 (1.4) n (%)
same,TEAE: Any AE,[6]; All patients (N = 71),70 (98.6) n (%)
same,TEAE: At least possibly related to study drug,[6]; All patients (N = 71),60 (84.5) n (%)
same,TEAE: NCI CTCAE grade 3 or 4,[6]; All patients (N = 71),28 (39.4) n (%)
same,Any SAE,"[6]; Part 1, extension (n = 24)",5 (20.8) n (%)
same,SAE leading to discontinuation,"[6]; Part 1, extension (n = 24)",3 (12.5) n (%)
same,SAE leading to dose interruption,"[6]; Part 1, extension (n = 24)",4 (16.7) n (%)
same,SAE leading to dose reduction,"[6]; Part 1, extension (n = 24)",0 n (%)
same,TEAE: Abdominal pain,"[6]; Part 1, extension (n = 24)",3 (12.5) n (%)
same,TEAE: Anemia,"[6]; Part 1, extension (n = 24)",3 (12.5) n (%)
same,TEAE: Any AE,"[6]; Part 1, extension (n = 24)",23 (95.8) n (%)
same,TEAE: At least possibly related to study drug,"[6]; Part 1, extension (n = 24)",17 (70.8) n (%)
same,TEAE: Constipation,"[6]; Part 1, extension (n = 24)",5 (20.8) n (%)
same,TEAE: Decreased appetite,"[6]; Part 1, extension (n = 24)",1 (4.2) n (%)
same,TEAE: Diarrhea,"[6]; Part 1, extension (n = 24)",5 (20.8) n (%)
same,TEAE: Fatigue,"[6]; Part 1, extension (n = 24)",7 (29.2) n (%)
same,TEAE: NCI CTCAE grade 3 or 4,"[6]; Part 1, extension (n = 24)",7 (29.2) n (%)
same,"TEAE: Nausea, Grade 1","[6]; Part 1, extension (n = 24)",11 (45.8) n (%)
same,"TEAE: Nausea, Grade 2","[6]; Part 1, extension (n = 24)",3 (12.5) n (%)
same,"TEAE: Nausea, Grade 3","[6]; Part 1, extension (n = 24)",0 n (%)
same,TEAE: Urinary tract infection,"[6]; Part 1, extension (n = 24)",7 (29.2) n (%)
same,TEAE: Vomiting,"[6]; Part 1, extension (n = 24)",11 (45.8) n (%)
same,"TEAE: Vomiting, Grade 1","[6]; Part 1, extension (n = 24)",11 (45.8) n (%)
same,"TEAE: Vomiting, Grade 2","[6]; Part 1, extension (n = 24)",0 n (%)
same,"TEAE: Vomiting, Grade 3","[6]; Part 1, extension (n = 24)",0 n (%)
same,Any SAE,[6]; Part 2 (n = 35),11 (31.4) n (%)
same,SAE leading to discontinuation,[6]; Part 2 (n = 35),4 (11.4) n (%)
same,SAE leading to dose interruption,[6]; Part 2 (n = 35),6 (17.1) n (%)
same,SAE leading to dose reduction,[6]; Part 2 (n = 35),1 (2.9) n (%)
same,TEAE: Abdominal pain,[6]; Part 2 (n = 35),7 (20.0) n (%)
same,TEAE: Anemia,[6]; Part 2 (n = 35),10 (28.6) n (%)
same,TEAE: Any AE,[6]; Part 2 (n = 35),35 (100) n (%)
same,TEAE: At least possibly related to study drug,[6]; Part 2 (n = 35),33 (94.3) n (%)
same,TEAE: Constipation,[6]; Part 2 (n = 35),14 (40.0) n (%)
same,TEAE: Decreased appetite,[6]; Part 2 (n = 35),11 (31.4) n (%)
same,TEAE: Diarrhea,[6]; Part 2 (n = 35),10 (28.6) n (%)
same,TEAE: Fatigue,[6]; Part 2 (n = 35),14 (40.0) n (%)
same,TEAE: NCI CTCAE grade 3 or 4,[6]; Part 2 (n = 35),17 (48.6) n (%)
same,TEAE: Nausea,[6]; Part 2 (n = 35),31 (88.6) n (%)
same,"TEAE: Nausea, Grade 1",[6]; Part 2 (n = 35),24 (68.6) n (%)
same,"TEAE: Nausea, Grade 2",[6]; Part 2 (n = 35),5 (14.3) n (%)
same,"TEAE: Nausea, Grade 3",[6]; Part 2 (n = 35),2 (5.7) n (%)
same,TEAE: Urinary tract infection,[6]; Part 2 (n = 35),5 (14.3) n (%)
same,TEAE: Vomiting,[6]; Part 2 (n = 35),17 (48.6) n (%)
same,"TEAE: Vomiting, Grade 1",[6]; Part 2 (n = 35),13 (37.1) n (%)
same,"TEAE: Vomiting, Grade 2",[6]; Part 2 (n = 35),3 (8.6) n (%)
same,"TEAE: Vomiting, Grade 3",[6]; Part 2 (n = 35),1 (2.9) n (%)
same,Any SAE,[6]; Part 3 (n = 12),4 (33.3) n (%)
same,SAE leading to discontinuation,[6]; Part 3 (n = 12),1 (8.3) n (%)
same,SAE leading to dose interruption,[6]; Part 3 (n = 12),4 (33.3) n (%)
